These results are taken from US10654845B2, “2-(het)aryl-substituted fused bicyclic heterocycle derivatives as pesticides” (BAYER CROPSCIENCE AKTIENGESELLSCHAFT, priority 2015, dated 2020).

Data set [1] deals with Aedes aegypti strain MONHEIM. Nature of the data set: whole plant or invertebrate. Type of data set: in vivo. The settings on record: read-out: mortality in %. The method, then: Aedes Test (AEDSAE Surface Treatment)
(§1) Solvent: acetone+2000 ppm rapeseed oil methyl ester (RME)
To produce an appropriate active compound formulation, the active compound is dissolved in the solvent (2 mg/ml). The active compound formulation is pipetted onto a glazed tile and, after it has dried off, adult mosquitoes of the species Aedes aegypti strain MONHEIM are placed onto the treated tile. The exposure time is 30 minutes.
(§2) 24 hours after contact with the treated surface, mortality in % is determined. 100% means that all mosquitoes have been killed; 0% means that none of the mosquitoes have been killed.

A further data set deals with Boophilus microplus. As to the kind of experiment: Boophilus microplus injection test. The conditions noted are these: 20 μg/animal, assessed after 7 days. It counts as in vivo. The method, then:
Boophilus microplus-Injection Test
(§3) Solvent: dimethyl sulphoxide
To produce a suitable preparation of active compound, 10 mg of active compound are mixed with 0.5 ml of solvent and the concentrate is diluted with solvent to the desired concentration.
1 μl of the active compound solution is injected into the abdomen of 5 engorged adult female cattle ticks (Boophilus microplus). The animals are transferred into dishes and kept in a climate-controlled room.
Efficacy is assessed after 7 days by laying of fertile eggs. Eggs which are not visibly fertile are stored in a climate-controlled cabinet until the larvae hatch after about 42 days. An efficacy of 100% means that none of the ticks has laid any fertile eggs; 0% means that all the eggs are fertile.

In data set [2] the test system is Anopheles funestus strain FUMOZ-R. Nature of the data set: whole plant or invertebrate. Type of data set: in vivo. The conditions noted are these: read-out: mortality in %. The method, then: Anopheles Test (ANPHFU Surface Treatment)
as §1
To produce an appropriate active compound formulation, the active compound is dissolved in the solvent (2 mg/ml). The active compound formulation is pipetted onto a glazed tile and, after it has dried off, adult mosquitoes of the species Anopheles funestus strain FUMOZ-R (Hunt et al., Med Vet Entomol. 2005 September; 19(3):271-5) are placed onto the treated tile. The exposure time is 30 minutes.
as §2

The subject of another data set is Phaedon cochleariae. As to the kind of experiment: Phaedon cochleariae spray test. Type of data set: in vivo. The conditions noted are these: 500 g/ha, after 7 days, beetle larvae killed; for pest or weed control at 500 g/ha: Phaedon cochleariae, 168 h, read-out: efficacy in %. The method in brief: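 Compound dissolved in acetone/dimethylformamide and diluted with water containing 1000 ppm alkylaryl polyglycol ether emulsifier to test concentrations, applied as a spray. Efficacy (% beetle larvae killed) assessed after 7 days.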

A short description of data set [3]: log P by HPLC on reversed-phase column (C18), EEC Directive 79/831 Annex V.A8. The settings on record: for chromatographic logP: reversed-phase HPLC column (C18). From the text: Called log P (HCOOH) in the table.
Called log P (neutral) in the table.

The subject of data set [4] is Anopheles gambiae strain RSPH (homozygot kdr). Nature of the data set: Anopheles test (ANPHGB surface treatment). It counts as in vivo. The conditions noted are these: 24 hours after contact. The method, then: Anopheles Test (ANPHGB Surface Treatment)
as §1
To produce an appropriate active compound formulation, the active compound is dissolved in the solvent (2 mg/ml). The active compound formulation is pipetted onto a glazed tile and, after it has dried off, adult mosquitoes of the species Anopheles gambiae strain RSPH (homozygot kdr) are placed onto the treated tile. The exposure time is 30 minutes.
as §2

For data set [5], the system named is Myzus persicae. As to the kind of experiment: Myzus persicae spray test (Chinese cabbage leaf discs). It counts as in vivo. The settings on record: Myzus persicae, foliar, 144 h; 500 g/ha, after 6 days, aphids killed; read-out: efficacy in %. The method in brief:
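Chinese cabbage leaf discs infested with all stages of green peach aphid were sprayed with compound in acetone/DMF diluted with water containing 1000 ppm emulsifier. Efficacy in % was scored after 6 days, where 100% means all aphids killed and 0% none.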

The next data set concerns Meloidogyne incognita. Nature of the data set: Meloidogyne incognita test. Type of data set: in vivo. The conditions noted are these: 20 ppm, after 14 days, formation of galls. The method, then: Meloidogyne incognita-Test
Solvent: 125.0 parts by weight of acetone
To produce a suitable preparation of active compound, 1 part by weight of active compound is mixed with the stated amount of solvent and the concentrate is diluted with water to the desired concentration.
Vessels are filled with sand, active compound solution, an egg/larvae suspension of the southern root-knot nematode (Meloidogyne incognita) and lettuce seeds. The lettuce seeds germinate and the plants develop. The galls develop on the roots.
After 14 days, the nematicidal efficacy in % is determined by the formation of galls. 100% means that no galls were found; 0% means that the number of galls on the treated plants corresponds to the untreated control.

The next data set concerns Lucilia cuprina. As to the kind of experiment: Lucilia cuprina test. The settings on record: 100 ppm, after 2 days, L1 larvae. It counts as in vivo. As for the experimental part:
as §3
(§4) To produce a suitable preparation of active compound, 10 mg of active compound are mixed with 0.5 ml of dimethyl sulphoxide, and the concentrate is diluted with water to the desired concentration.
About 20 L1 larvae of the Australian sheep blowfly (Lucilia cuprina) are transferred into a test vessel containing minced horsemeat and the active compound preparation of the desired concentration.
After 2 days, the kill in % is determined. 100% means that all the larvae have been killed; 0% means that no larvae have been killed.

The subject of data set [6] is Ctenocephalides felis. Nature of the data set: Ctenocephalides felis oral test. Type of data set: in vivo. The settings on record: 100 ppm, after 2 days. The method, then:
Ctenocephalides felis-Oral Test
as §3
To produce a suitable preparation of active compound, 10 mg of active compound are mixed with 0.5 ml of dimethyl sulphoxide. Dilution with citrated cattle blood gives the desired concentration.
About 20 unfed adult cat fleas (Ctenocephalides felis) are placed into a chamber which is closed at the top and bottom with gauze. A metal cylinder whose bottom end is closed with parafilm is placed onto the chamber. The cylinder contains the blood/active compound preparation, which can be imbibed by the fleas through the parafilm membrane.
After 2 days, the kill in % is determined. 100% means that all of the fleas have been killed; 0% means that none of the fleas have been killed.

The next data set concerns Spodoptera frugiperda. As to the kind of experiment: Spodoptera frugiperda spray test. Type of data set: in vivo. The conditions noted are these: 500 g/ha, after 7 days, caterpillars killed. As for the experimental part: Spodoptera frugiperda-Spray Test Solvent: 78.0 parts by weight of acetone • • 1.5 parts by weight of dimethylformamide Emulsifier: alkylaryl polyglycol ether […] To produce further test concentrations, the preparation is diluted with emulsifier-containing water. Leaf disks of maize (Zea mays) are sprayed with an active compound preparation of the desired concentration and, after drying, populated with caterpillars of the armyworm (Spodoptera frugiperda).

The subject of data set [7] is Myzus persicae. As to the kind of experiment: Myzus persicae spray test (bell pepper plants). It counts as in vivo. The conditions noted are these: 100 ppm, after 6 days. The method, then:
Myzus persicae Spray Test
Solvent: 7 parts by weight of dimethylformamide
Emulsifier: alkylaryl polyglycol ether
To produce a suitable preparation of active compound, 1 part by weight of active compound is dissolved using the stated parts by weight of solvent and made up with water containing an emulsifier concentration of 1000 ppm until the desired concentration is attained. To produce further test concentrations, the preparation is diluted with emulsifier-containing water. If the addition of ammonium salts or/and penetrants is required, these are each added in a concentration of 1000 ppm to the formulation solution.
Bell pepper plants (Capsicum annuum) severely infested with the green peach aphid (Myzus persicae) are treated by spraying with the active compound preparation in the desired concentration.
After 6 days, the kill in % is determined. 100% means that all of the aphids have been killed; 0% means that none of the aphids have been killed.

Another data set relates to Musca domestica. As to the kind of experiment: Musca domestica test. It counts as in vivo. The conditions noted are these: 100 ppm, after 2 days, adult houseflies. As for the experimental part:
as §3, §4
Vessels containing a sponge treated with sugar solution and the active compound preparation of the desired concentration are populated with 10 adult houseflies (Musca domestica).
After 2 days, the kill in % is determined. 100% means that all of the flies have been killed; 0% means that none of the flies have been killed.

The test system of data set [8] is Ctenocephalides felis. Nature of the data set: Ctenocephalides felis in vitro contact tests with adult cat fleas. The settings on record: 5 μg/cm^2 (500 g/ha), after 48 h. Type of data set: in vivo. The method, then:
Ctenocephalides felis—In Vitro Contact Tests with Adult Cat Fleas
For the coating of the test tubes, 9 mg of active compound are first dissolved in 1 ml of acetone p.a. and then diluted to the desired concentration with acetone p.a. 250 μl of the solution are distributed homogeneously on the inner walls and the base of a 25 ml test tube by turning and rocking on an orbital shaker (rocking rotation at 30 rpm for 2 h). With 900 ppm active compound solution and internal surface 44.7 cm^2, given homogeneous distribution, an area-based dose of 5 μg/cm^2 is achieved.
After the solvent has evaporated off, the tubes are populated with 5-10 adult cat fleas (Ctenocephalides felis), sealed with a perforated plastic lid and incubated in a horizontal position at room temperature and ambient humidity. After 48 h, efficacy is determined. To this end, the test tubes are stood upright and the fleas are knocked to the base of the tube. Fleas which remain motionless at the base or move in an uncoordinated manner are considered to be dead or moribund.
100% efficacy means that all the fleas were dead or moribund. 0% efficacy means that no fleas were harmed.

Where [9] appears, read: pH 2.7, logP-acidic, LC-MS acidic range, pH 2.7 (HCOOH), C18, 55° C.
Where [10] appears, read: pH 7.8, log P (neutral), preparation examples, neutral range, pH 7.8.
The mark [11] stands for this setting: pH 7.8, logP-neutral, LC-MS neutral range, pH 7.8, C18, 55° C.

One may read the mortality as the percentage killed. By chromatographic logP is commonly meant a lipophilicity value derived from retention on a column. Take `CCS(=O)(=O)c1ccc(N)nc1-c1nc2cc(C(F)(F)F)ncc2n1C` [Example 14, 5-(Ethylsulphonyl)-6-[3-methyl-6-(trifluoromethyl)-3H-imidazo[4,5-c]pyridin-2-yl]pyridine-2-amine]: the mortality at 20 mg/m2 fell in the range of 80 to 100% in data set [1]; 80 to 100% in data set [2]; 80 to 100% in [4] (20 mg/m^2, 30 minutes exposure). In addition, the mortality at 100 mg/m2 was in the range of 80 to 100% in [1]; 80 to 100% in [2]; 80 to 100% in data set [4] (100 mg/m^2, 30 minutes exposure). Moreover, the “efficacy (laying of fertile eggs)” value with Boophilus microplus amounted to 80%. In addition, the pest or weed control at 500 g/ha in the data set on Phaedon cochleariae was 100%; in the data set on Myzus persicae [5], 90%. The chromatographic logP was determined as 1.63 in [3] (setting [9]), 1.62 in data set [3] (setting [10]) and 1.62 in data set [3] (setting [11]). For the same molecule, the “nematicidal efficacy in %” value with Meloidogyne incognita is listed as 90%. The kill in % with Lucilia cuprina and in the data set on Ctenocephalides felis [6] was 100% throughout.
`CCS(=O)(=O)c1ccc(/C=C/C2CC2)nc1-c1nc2cc(C(F)(F)F)ncc2n1C` [Example 40, 2-{6-[(E)-2-Cyclopropylvinyl]-3-(ethylsulphonyl)pyridin-2-yl}-3-methyl-6-(trifluoromethyl)-3H-imidazo[4,5-c]pyridine] displayed an efficacy in % in the data set with Spodoptera frugiperda of 100%. For the same molecule, the pest or weed control at 500 g/ha with Phaedon cochleariae was 100%. The chromatographic logP came out at 3.33 in data set [3] (setting [9]), 3.24 in data set [3] (setting [10]) and 3.24 in data set [3] (setting [11]). Besides, the kill in % in the data set with Myzus persicae [7] worked out at 100%.
In the case of `CCS(=O)(=O)c1ccc(NC(=O)C2CC2)nc1-c1nc2cc(C(F)(F)F)ncc2n1C` [Example 22], in the data set with Boophilus microplus, the “efficacy (laying of fertile eggs)” value was 80%. In the data set with Phaedon cochleariae, this molecule came in with an efficacy in % of 100%. This molecule also registered a logP-acidic in data set [3] (pH 2.7) of 2.43. Besides, the kill in % is listed as 100% in the data set with Myzus persicae [7], 100% with Musca domestica, 90% in the data set with Lucilia cuprina and 100% in the data set on Ctenocephalides felis [6]. For the same molecule, in the data set on Ctenocephalides felis [8], the “efficacy (dead or moribund fleas)” value is given as 100%.
